# Experimental data taken from the SangsterLogP compilation.
# Test: method code SF-AS, from DOI: 10.1002/jps.2600771105, PMID: 3225751
# Conditions: pH 1.0
row,SMILES,logD
1,CCC1(C(C)(C)C)C(=O)NC(=O)NC1=O,1.38
2,CC1(C)C(=O)NC(=S)NC1=O,0.5
3,CC(C)(C)C1(C)C(=O)NC(=O)NC1=O,0.8
4,CCCCC1(CCCC)C(=O)NC(=O)NC1=O,2.7
5,CCCC1(CCC)C(=O)NC(=O)NC1=O,1.75
6,CC(C)(C)C1(Cl)C(=O)NC(=O)NC1=O,0.82
7,CC(C)C1C(=O)NC(=O)NC1=O,-0.02
8,CCCCC1(CC)C(=O)NC(=O)NC1=O,1.73
9,C=CCC1(C(C)(C)C)C(=O)NC(=O)NC1=O,1.64
10,CCCC1(CCC)C(=O)NC(=S)NC1=O,2.66
11,CC(C)C1(C(C)C)C(=O)NC(=O)NC1=O,1.56
12,CC(C)C1(C)C(=O)NC(=O)NC1=O,0.54
13,CC(C)(C)C1C(=O)NC(=O)NC1=O,0.28
14,CCC1(CC)C(=O)NC(=S)NC1=O,1.5
